Measurements as given in patent publication US20240335442A1 (Eurofarma Laboratórios S.A., priority 2021, published 2024).

Assays:
[1] = biological target: human sodium channel Nav 1.8 (Homo sapiens (Human), UniProt Q9Y5Y9); assay: Automated whole-cell voltage-clamp (ScreenPatch 384P), Nav 1.8 sodium current, Protocol 1; type: cell-based; details: Protocol 1 (holding voltage -90 mV, 0.1 Hz); CHO cells expressing human Nav 1.8; room temperature; read-out: Nav1.8 IC50
Description: (§1) Biological assays were performed on Chinese hamster ovary (CHO) cells expressing the human sodium channels Nav 1.8 and Nav 1.7 stably.
(§2) The experimental voltage-clamp protocol using the whole cell configuration was established on the automated ScreenPatch® 384P platform (SP384PE, Nanion Technologies, Livingston, NJ) and recording of the results was performed with a Nanion 384-well Patch Clamp chip (NPC) (Nanion Technologies, Livingston, NJ).
(§3) Compounds of Formula (I), were diluted in eight concentrations in the extracellular solution composed of physiological saline, buffered with HEPES (mM): NaCl, 137; KCl, 4; CaCl2, 3.8; MgCl2, 1; HEPES, 10; Glucose, 10; pH 7.4. The […], 50; CsF, 90; MgCl2, 5; EGTA, 5; HEPES, 10; pH 7.2. The duration of exposure of each compound with the cells expressing Nav 1.7 or Nav 1.8 was at least five minutes and the assays were performed at room temperature.
(§4) The measurements of the sodium currents of Nav 1.8 and Nav 1.7 were obtained using the voltage protocols described below: • Protocol 1: A holding voltage of-90 mV was established followed by a voltage phase of 200 ms to-120 mV, followed by a voltage step of 10 mV for 1 second for Nav 1.8 or 0 mV for Nav 1.7, followed by a step of-100 mV for 20 ms, followed by a step of 20 ms for 10 mV for Nav 1.8 or 0 mV for Nav 1.7 (TP1A) before returning to the holding voltage of-90 mV. • Protocol 2: A holding voltage of-100 mV was established followed by an inactivation voltage step at −40 mV for 8 seconds, followed by a −100 mV step for 20 ms, followed by a 20 ms step for 10 mV for Nav 1.8 or 0 mV for Nav 1.7 (TP1A) before returning to the holding voltage of-100 mV.
(§5) Protocols were repeated at a frequency of 0.1 Hz (Protocol 1) or 0.05 Hz (Protocol 2) and current amplitude was quantified over the TP1A phase log. The variation in the peak amplitude of the current was evaluated according to the Formula described below, after exposure of the cells expressing the channels, at each concentration of the different compounds:
(§6) where ITP1A,basal, and ITP1A,molecule represent the entry peaks of sodium currents into TP1A prior to exposure to the compound and in the presence of the compound, respectively.
(§7) The decrease in peak current amplitude, after exposure of the cells to the compounds, was used to calculate the percent relative blocking of the channels relative to the positive control according to the Formula below: […]
(§8) where % V and % CP represent the averages of the values of current inhibition with a vehicle (DMSO) and positive controls, respectively. The sodium currents of the positive control were considered as 100%.
(§9) where [Test] represents the concentration of the evaluated molecule, IC50 is the concentration of the compound that generates half of the maximum inhibition, N is the Hill's coefficient and % Block′ is the percentage of the sodium channel current (Nav 1.8 and Nav 1.7) inhibited at each concentration of the evaluated molecule. Data were obtained by non linear least squares regression with XL fit for Excel (Microsoft, Redmond, WA).
(§10) Compounds were tested in at least one assay to obtain the IC50 value.

[2] = biological target: human sodium channel Nav 1.7 (Homo sapiens (Human), UniProt Q15858); assay: Automated whole-cell voltage-clamp (ScreenPatch 384P), Nav 1.7 sodium current, Protocol 1; type: cell-based; details: Protocol 1 (holding voltage -90 mV, 0.1 Hz); CHO cells expressing human Nav 1.7; room temperature; read-out: Nav1.7 IC50
human sodium channel Nav 1.7, sequence (Q15858 whole entry): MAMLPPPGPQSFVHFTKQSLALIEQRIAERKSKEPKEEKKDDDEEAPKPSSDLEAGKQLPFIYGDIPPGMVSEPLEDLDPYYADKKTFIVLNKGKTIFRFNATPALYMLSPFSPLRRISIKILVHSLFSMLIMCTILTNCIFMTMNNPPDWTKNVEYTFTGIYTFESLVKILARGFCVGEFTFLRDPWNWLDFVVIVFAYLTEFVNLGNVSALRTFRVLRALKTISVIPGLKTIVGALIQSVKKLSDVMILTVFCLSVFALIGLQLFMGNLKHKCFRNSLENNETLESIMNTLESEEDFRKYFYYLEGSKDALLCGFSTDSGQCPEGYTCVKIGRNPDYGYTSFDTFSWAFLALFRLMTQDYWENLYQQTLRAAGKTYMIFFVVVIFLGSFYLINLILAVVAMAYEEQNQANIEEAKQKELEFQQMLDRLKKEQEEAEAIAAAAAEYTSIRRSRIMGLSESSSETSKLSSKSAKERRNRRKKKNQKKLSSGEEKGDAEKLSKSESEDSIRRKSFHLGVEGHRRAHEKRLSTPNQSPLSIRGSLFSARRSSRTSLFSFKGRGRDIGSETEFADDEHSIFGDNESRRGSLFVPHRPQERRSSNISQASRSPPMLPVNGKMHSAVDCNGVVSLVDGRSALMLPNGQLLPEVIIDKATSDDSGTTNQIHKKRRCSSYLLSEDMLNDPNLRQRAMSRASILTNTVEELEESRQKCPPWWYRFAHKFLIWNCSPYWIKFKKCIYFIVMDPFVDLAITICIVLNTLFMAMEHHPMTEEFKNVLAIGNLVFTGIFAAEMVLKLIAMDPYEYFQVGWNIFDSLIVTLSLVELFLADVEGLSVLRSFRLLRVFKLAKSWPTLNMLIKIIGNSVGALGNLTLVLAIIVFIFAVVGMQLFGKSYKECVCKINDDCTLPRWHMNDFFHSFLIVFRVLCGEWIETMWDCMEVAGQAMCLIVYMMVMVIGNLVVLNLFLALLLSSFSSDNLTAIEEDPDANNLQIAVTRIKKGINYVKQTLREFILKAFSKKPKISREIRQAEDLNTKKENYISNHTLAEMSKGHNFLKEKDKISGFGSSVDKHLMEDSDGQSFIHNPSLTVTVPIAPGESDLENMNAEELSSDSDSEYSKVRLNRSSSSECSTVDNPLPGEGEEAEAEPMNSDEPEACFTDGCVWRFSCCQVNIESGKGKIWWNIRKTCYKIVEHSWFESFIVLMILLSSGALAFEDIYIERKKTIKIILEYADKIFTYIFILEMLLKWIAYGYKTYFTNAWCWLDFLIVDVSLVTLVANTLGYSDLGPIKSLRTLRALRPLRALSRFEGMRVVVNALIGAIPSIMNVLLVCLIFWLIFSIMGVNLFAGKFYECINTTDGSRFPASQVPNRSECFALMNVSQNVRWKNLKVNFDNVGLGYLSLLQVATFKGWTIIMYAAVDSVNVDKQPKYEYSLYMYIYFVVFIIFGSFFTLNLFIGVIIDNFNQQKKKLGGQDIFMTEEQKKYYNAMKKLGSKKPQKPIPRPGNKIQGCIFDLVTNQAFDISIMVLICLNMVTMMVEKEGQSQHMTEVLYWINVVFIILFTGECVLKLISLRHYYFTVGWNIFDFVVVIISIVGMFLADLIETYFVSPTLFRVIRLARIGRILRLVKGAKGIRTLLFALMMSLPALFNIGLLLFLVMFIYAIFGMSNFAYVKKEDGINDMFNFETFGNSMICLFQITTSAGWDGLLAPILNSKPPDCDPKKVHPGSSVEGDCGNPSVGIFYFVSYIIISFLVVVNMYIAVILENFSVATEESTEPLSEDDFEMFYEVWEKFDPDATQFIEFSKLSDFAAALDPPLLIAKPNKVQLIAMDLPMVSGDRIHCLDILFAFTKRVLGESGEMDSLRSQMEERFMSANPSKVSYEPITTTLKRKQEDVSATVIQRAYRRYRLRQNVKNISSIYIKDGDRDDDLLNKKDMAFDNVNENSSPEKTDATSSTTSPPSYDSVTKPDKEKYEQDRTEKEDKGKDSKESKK
Description: as §1, §2, §3, §4, §5, §6, §7, §8, §9, §10

human sodium channel Nav 1.8, sequence (Q9Y5Y9 whole entry): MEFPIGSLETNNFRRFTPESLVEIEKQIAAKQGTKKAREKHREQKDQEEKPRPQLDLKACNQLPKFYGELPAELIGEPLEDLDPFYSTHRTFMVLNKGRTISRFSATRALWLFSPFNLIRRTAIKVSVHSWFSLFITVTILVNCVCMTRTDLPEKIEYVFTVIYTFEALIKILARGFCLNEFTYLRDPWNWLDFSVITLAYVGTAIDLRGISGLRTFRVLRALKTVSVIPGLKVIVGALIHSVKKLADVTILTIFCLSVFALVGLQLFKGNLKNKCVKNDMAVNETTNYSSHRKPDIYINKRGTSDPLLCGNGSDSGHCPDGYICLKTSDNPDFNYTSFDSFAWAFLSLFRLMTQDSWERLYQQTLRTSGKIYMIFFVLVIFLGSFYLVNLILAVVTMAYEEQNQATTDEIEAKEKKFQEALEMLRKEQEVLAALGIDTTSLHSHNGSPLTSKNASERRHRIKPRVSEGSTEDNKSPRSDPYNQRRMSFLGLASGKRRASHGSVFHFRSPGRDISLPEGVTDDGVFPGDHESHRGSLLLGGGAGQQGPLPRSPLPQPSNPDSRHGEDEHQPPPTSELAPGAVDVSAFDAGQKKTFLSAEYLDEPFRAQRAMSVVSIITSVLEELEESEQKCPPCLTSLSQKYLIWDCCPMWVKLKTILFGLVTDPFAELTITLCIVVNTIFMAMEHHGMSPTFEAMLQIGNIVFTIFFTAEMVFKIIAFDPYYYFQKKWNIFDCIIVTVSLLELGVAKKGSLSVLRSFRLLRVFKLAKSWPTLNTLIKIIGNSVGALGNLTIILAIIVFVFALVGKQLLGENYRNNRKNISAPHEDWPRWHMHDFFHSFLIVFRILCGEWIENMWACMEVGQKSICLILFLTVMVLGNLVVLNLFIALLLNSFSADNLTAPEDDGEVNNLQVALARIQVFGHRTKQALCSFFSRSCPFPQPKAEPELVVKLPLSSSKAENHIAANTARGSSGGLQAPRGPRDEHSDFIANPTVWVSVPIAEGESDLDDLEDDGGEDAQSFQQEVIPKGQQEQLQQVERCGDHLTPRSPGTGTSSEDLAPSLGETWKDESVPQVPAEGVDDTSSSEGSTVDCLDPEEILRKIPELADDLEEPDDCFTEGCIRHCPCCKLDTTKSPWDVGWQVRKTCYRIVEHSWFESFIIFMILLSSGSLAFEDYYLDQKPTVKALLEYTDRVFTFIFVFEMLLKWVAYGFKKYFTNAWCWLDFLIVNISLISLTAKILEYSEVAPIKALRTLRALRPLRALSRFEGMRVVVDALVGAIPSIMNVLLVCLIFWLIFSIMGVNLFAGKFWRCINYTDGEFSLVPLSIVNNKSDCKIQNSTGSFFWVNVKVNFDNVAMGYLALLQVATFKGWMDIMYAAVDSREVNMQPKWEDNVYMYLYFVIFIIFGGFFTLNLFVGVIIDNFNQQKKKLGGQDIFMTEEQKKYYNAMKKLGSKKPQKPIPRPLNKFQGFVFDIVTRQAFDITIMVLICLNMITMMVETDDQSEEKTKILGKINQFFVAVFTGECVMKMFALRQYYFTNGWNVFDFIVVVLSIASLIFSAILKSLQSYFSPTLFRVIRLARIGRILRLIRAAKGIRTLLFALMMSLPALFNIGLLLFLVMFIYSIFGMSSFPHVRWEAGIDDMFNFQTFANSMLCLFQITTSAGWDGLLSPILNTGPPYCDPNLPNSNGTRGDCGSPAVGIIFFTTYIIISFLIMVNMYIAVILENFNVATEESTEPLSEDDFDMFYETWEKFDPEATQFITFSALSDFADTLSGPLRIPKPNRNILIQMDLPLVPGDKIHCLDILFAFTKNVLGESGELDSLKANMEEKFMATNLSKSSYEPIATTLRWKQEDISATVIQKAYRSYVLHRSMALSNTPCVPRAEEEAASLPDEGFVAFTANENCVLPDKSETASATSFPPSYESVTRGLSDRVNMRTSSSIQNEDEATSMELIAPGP

Structure (SMILES)	IC50 [1]	IC50 [2]
CCOc1ccc(-c2cncc(C(=O)N/N=C/c3cncc(OC)c3)n2)cc1 [Compound 8, (E)-6-(4-ethoxyphenyl)-N′-((5-methoxypyridin-3-yl)methylene)pyrazine-2-carbohydrazide]	> 10 µM	> 10 µM
CCOc1ccc(-c2cncc(C(=O)N/N=C/c3cc(OC)cc4ncoc34)n2)cc1 [Compound 5, (E)-6-(4-ethoxyphenyl)-N′-((5-methoxybenzo[d]oxazol-7-yl)methylene)pyrazine-2-carbohydrazide]	5.63 µM	> 10 µM
CCOc1ccc(-c2cncc(C(=O)N/N=C/c3cc(OC)ccn3)n2)cc1 [Compound 9, (E)-6-(4-ethoxyphenyl)-N′-((4-methoxypyridin-2-yl)methylene)pyrazine-2-carbohydrazide]	9.77 µM	> 10 µM
CCOc1ccc(-c2cncc(C(=O)N/N=C/c3cc(OC)cc(OCCN(C)C)c3)n2)cc1 [Compound 4, (E)-N′-(3-(2-(dimethylamino)ethoxy)-5-methoxybenzylidene)-6-(4-ethoxyphenyl)pyrazine-2-carbohydrazide]	6.02 µM	6.66 µM

Other lines, results leading:

IC50 [1]	IC50 [2]	Structure (SMILES)
9.18 µM	6.36 µM	CCOc1ccc(-c2cncc(C(=O)N/N=C(\C)c3cc(OC)cc(OC)c3)n2)cc1 [Compound 166, (E)-N′-(1-(3,5-dimethoxyphenyl)ethylidene)-6-(4-ethoxyphenyl)pyrazine-2-carbohydrazide]
8.09 µM	> 10 µM	CCOc1ccc(-c2cncc(C(=O)N/N=C/c3ccncc3)n2)cc1 [Compound 24, (E)-6-(4-ethoxyphenyl)-N′-(pyridin-4-ylmethylene)pyrazine-2-carbohydrazide]
2.37 µM	1.41 µM	CCOc1ccc(-c2cncc(C(=O)N/N=C/c3ccc(OC)c(OC)c3)n2)cc1 [Compound 28, (E)-N′-(3,4-dimethoxybenzylidene)-6-(4-ethoxyphenyl)pyrazine-2-carbohydrazide]
> 10 µM	> 10 µM	CCOc1ccc(-c2cncc(C(=O)N/N=C/c3ccccn3)n2)cc1 [Compound 25, (E)-6-(4-ethoxyphenyl)-N′-(pyridin-2-ylmethylene)pyrazine-2-carbohydrazide]
1.9 µM	0.697 µM	CCOc1ccc(-c2cncc(C(=O)N/N=C/c3ccc(OC)cc3)n2)cc1 [Compound 23, (E)-6-(4-ethoxyphenyl)-N′-(4-methoxybenzylidene)pyrazine-2-carbohydrazide]
3.23 µM	4.52 µM	CCOc1ccc(-c2cncc(C(=O)N/N=C/c3cccc(OC)n3)n2)cc1 [Compound 11, (E)-6-(4-ethoxyphenyl)-N′-((6-methoxypyridin-2-yl)methylene)pyrazine-2-carbohydrazide]
